# Assays:
# [1] = system: carbonic anhydrase IX (CA IX); test: CA IX gene expression in SaOS-2 cells on discs (qRT-PCR); assay type: cell-based, human; conditions: normalized to GAPDH, 100 μM gallium nitrate
# Procedure: As a marker for the functional activity of the SaOS-2 cells, growing onto titanium discs, the expression of the two genes encoding for the enzymes carbonic anhydrase IX (CA IX) and alkaline phosphatase (ALP) was determined by quantitative qRT-PCR.
# (SEQ ID NO: 8). […] (SEQ ID NO. 10).
# [2] = system: alkaline phosphatase (ALP); conditions: normalized to GAPDH, 100 μM gallium nitrate
# Procedure: The expression values were normalized to the expression of GAPDH. […] The cultures were incubated at first in the absence of the MAC for 3 d; then they were transferred to medium, supplemented with the MAC, and the incubation was continue for additional 3 or 5 d, as outlined. Then the cells were harvested, RNA was extracted and subjected to qRT-PCR for determination of both CA IX and ALP transcripts; the expression of GAPDH served as reference. Data are expressed as mean values±SD for five independent experiments; each experiment was carried out in duplicate (* P<0.01). nd, not detectable.
# In parallel, the expression of the gene for the enzyme ALP was determined, likewise by qRT-PCR.
# Bone cell like SaOS-2 cells (human osteogenic sarcoma cells) are cultured in McCoy's medium (Biochrom-Seromed), supplemented with 2 mM L-glutamine, 10% or 15% heat-inactivated fetal calf serum (FCS), and 100 units/ml penicillin and 100 μg/ml streptomycin. The cells are incubated in 25-cm^2 flasks or in 6-well plates (surface area 9.46 cm^2; e.g. from Orange Scientifique) in a humidified incubator at 37° C. […]
# The quantitative real-time RT [reverse transcription]-PCR (qRT-PCR) technique is applied to determine the effect of the discs on the expression levels of the following genes in SaOS-2 cells. […] After determinations of the Ct values the expression of the respective transcripts are calculated.
smiles,measurement,setting,value
O=[N+]([O-])[O-].O=[N+]([O-])[O-].O=[N+]([O-])[O-].[Ga+3] [gallium nitrate],"CA IX expression, with Ga, −MAC 0 d",[1],0.24±0.05
same,"CA IX expression, with Ga, +MAC 5 d",[1]; 3 d −MAC then 5 d +MAC,0.89±0.11
same,"ALP expression, with Ga, −MAC 0 d",[2],0.027 ± 0.004
same,"ALP expression, with Ga, +MAC 5 d",[2]; 3 d −MAC then 5 d +MAC,0.111 ± 0.010

# — patent publication US20190083679A1, “Amorphous Inorganic Polyphosphate-Calcium-Phosphate And Carbonate Particles As Morphogenetically Active Coatings and Scaffolds” (NanotecMARIN GmbH, priority 2014, published 2019)
